# Measured values as given in BindingDB's records for doi:10.1016/j.bmc.2019.115214 (Nankai University, 2020).
# Experiment: Inhibition of HIV1 gp41- induced cell-cell fusion between viral envelope expressed in human HL2/3 cells to CD4/CCR5 receptor expressed TZM-bl cells after 6 hrs by luciferase assay
row,Substance,IC50
1,H-RIQQIEQKIHHIEQRIQQIEQRIEAQQHLLQLTVWGIKQLQARIL-OH,0.039 µM
2,H-RIQQIEQKIHHIEQRIQQIEQRISGIVQQQNNLLRIEAQQHLLQLTVWGIKQLQARIL-OH,0.082 µM
3,H-RIQQIEQKIHHIEQRIQQIEQLLQLTVWGIKQLQARIL-OH,0.251 µM
4,H-YTSLIHSLIEEQNQQEKNEQELLELDKWALWNWF-OH,0.0025 µM
